This passage reports Ki, IC50 and inhibition results from ChEMBL document CHEMBL1136938, “Structure-activity relationships comparing N-(6-methylpyridin-yl)-substituted aryl amides to 2-methyl-6-(substituted-arylethynyl)pyridines or 2-methyl-4-(substituted-arylethynyl)thiazoles as novel metabotropic glutamate receptor subtype 5 antagonists” (J Med Chem, 2009).

For assay [1], the target named is T1, Metabotropic glutamate receptor 5 (Rattus norvegicus, UniProt P31424). The assay is described as follows: Displacement of [3H]MPEP from rat brain recombinant mGluR5 expressed in HEK293T cells by scintillation counting. The class given is cell-based, HEK-293T. A general note: Displacement assays read how much labelled ligand stays bound in the presence of the test substance.

Assay [2] has as its target T1, Metabotropic glutamate receptor 5. Nature of the assay: Antagonist activity at rat mGluR5 expressed in HEK293A cells assessed as glutamate-induced calcium flux preincubated for 140 sec before glutamate challenge by calcium fluorescence assay. Format: functional, cell-based, HEK293-A. A general note: A change in cytosolic calcium serves as a functional read-out for many receptors and channels.

In assay [3] the target is T2, Metabotropic glutamate receptor 5 (Homo sapiens, UniProt P41594). The assay is described as follows: Antagonist activity at cloned mGluR5 expressed in CHO cells co-transfected with chimeric G protein Gqi9 assessed as inhibition of glutamate-induced intracellular inositol phosphate accumulation at 10 uM by phosphoinositide hydrolysis assay. The class given is functional, cell-based.
Target sequence in this assay (P41594 21-1212 limits assumed): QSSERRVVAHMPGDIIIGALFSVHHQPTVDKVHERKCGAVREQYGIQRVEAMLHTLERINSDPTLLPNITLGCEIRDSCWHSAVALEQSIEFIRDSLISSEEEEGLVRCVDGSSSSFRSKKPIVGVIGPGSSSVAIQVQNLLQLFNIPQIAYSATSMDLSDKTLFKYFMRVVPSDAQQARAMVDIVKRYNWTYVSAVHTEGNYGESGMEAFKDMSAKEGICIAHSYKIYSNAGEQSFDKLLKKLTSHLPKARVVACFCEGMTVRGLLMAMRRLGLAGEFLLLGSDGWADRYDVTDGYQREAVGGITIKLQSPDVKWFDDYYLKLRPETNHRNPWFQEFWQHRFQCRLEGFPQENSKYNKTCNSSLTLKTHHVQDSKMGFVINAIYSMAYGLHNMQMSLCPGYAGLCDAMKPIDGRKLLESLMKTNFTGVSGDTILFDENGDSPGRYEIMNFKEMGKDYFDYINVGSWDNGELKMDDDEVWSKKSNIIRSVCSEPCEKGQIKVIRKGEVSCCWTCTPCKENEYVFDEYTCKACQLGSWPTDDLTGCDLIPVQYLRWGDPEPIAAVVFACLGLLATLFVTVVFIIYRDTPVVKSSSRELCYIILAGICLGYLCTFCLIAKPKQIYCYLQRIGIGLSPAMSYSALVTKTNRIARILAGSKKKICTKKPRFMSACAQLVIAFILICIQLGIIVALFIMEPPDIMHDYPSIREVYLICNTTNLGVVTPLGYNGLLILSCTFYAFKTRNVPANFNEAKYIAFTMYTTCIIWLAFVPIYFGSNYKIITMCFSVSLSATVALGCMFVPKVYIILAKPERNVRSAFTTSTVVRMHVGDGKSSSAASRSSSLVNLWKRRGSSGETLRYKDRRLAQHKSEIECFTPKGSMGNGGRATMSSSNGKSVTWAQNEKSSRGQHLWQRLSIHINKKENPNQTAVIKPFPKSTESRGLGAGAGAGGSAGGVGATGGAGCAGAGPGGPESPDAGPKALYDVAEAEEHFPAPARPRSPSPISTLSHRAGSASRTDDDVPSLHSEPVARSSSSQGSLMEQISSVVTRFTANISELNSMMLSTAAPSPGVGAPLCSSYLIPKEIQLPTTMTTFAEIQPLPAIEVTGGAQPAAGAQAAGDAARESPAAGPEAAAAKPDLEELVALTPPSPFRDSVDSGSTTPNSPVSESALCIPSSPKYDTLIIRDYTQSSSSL

Assay [4] addresses Metabotropic glutamate receptor 1 (Homo sapiens) (UniProt Q13255). Nature of the assay: Antagonist activity at cloned mGluR1 expressed in CHO cells co-transfected with chimeric G protein Gqi9 assessed as inhibition of glutamate-induced intracellular inositol phosphate accumulation at 10 uM by phosphoinositide hydrolysis assay. Format: functional, cell-based.
In assay [5] the target is Metabotropic glutamate receptor 6 (Homo sapiens) (UniProt O15303). Nature of the assay: Antagonist activity at cloned mGluR6 expressed in CHO cells co-transfected with chimeric G protein Gqi9 assessed as inhibition of glutamate-induced intracellular inositol phosphate accumulation at 10 uM by phosphoinositide hydrolysis assay. The class given is functional, cell-based.

Assay [6] deals with T2, Metabotropic glutamate receptor 5. Nature of the assay: Displacement of [3H]MPEP from cloned mGluR5 expressed in HEK293T cells by scintillation counting. The class given is cell-based, HEK-293T.
Assay [7] addresses T3, Sodium-dependent dopamine transporter (Homo sapiens, UniProt Q01959). Nature of the assay: Displacement of [125I]RTI55 from human DAT expressed in HEK293 cells. Format: cell-based.
Assay [8] deals with T4, Sodium-dependent serotonin transporter (Homo sapiens, UniProt P31645). The assay is described as follows: Displacement of [125I]RTI55 from human SERT expressed in HEK293 cells. Format: cell-based.
Assay [9] concerns the target T5, Sodium-dependent noradrenaline transporter (Homo sapiens, UniProt P23975). Nature of the assay: Displacement of [125I]RTI55 from human NET expressed in HEK293 cells. The class given is cell-based.
Assay [10] addresses T3, Sodium-dependent dopamine transporter. The assay is described as follows: Inhibition of dopamine uptake at human DAT expressed in HEK293 cells. The class given is cell-based.
The target in assay [11] is T4, Sodium-dependent serotonin transporter. Nature of the assay: Inhibition of serotonin uptake at human SERT expressed in HEK293 cells. The class given is cell-based.
Assay [12] has as its target T5, Sodium-dependent noradrenaline transporter. Nature of the assay: Inhibition of norepinephrine uptake at human NET expressed in HEK293 cells. Format: cell-based.

T1 sequence (P31424 whole entry): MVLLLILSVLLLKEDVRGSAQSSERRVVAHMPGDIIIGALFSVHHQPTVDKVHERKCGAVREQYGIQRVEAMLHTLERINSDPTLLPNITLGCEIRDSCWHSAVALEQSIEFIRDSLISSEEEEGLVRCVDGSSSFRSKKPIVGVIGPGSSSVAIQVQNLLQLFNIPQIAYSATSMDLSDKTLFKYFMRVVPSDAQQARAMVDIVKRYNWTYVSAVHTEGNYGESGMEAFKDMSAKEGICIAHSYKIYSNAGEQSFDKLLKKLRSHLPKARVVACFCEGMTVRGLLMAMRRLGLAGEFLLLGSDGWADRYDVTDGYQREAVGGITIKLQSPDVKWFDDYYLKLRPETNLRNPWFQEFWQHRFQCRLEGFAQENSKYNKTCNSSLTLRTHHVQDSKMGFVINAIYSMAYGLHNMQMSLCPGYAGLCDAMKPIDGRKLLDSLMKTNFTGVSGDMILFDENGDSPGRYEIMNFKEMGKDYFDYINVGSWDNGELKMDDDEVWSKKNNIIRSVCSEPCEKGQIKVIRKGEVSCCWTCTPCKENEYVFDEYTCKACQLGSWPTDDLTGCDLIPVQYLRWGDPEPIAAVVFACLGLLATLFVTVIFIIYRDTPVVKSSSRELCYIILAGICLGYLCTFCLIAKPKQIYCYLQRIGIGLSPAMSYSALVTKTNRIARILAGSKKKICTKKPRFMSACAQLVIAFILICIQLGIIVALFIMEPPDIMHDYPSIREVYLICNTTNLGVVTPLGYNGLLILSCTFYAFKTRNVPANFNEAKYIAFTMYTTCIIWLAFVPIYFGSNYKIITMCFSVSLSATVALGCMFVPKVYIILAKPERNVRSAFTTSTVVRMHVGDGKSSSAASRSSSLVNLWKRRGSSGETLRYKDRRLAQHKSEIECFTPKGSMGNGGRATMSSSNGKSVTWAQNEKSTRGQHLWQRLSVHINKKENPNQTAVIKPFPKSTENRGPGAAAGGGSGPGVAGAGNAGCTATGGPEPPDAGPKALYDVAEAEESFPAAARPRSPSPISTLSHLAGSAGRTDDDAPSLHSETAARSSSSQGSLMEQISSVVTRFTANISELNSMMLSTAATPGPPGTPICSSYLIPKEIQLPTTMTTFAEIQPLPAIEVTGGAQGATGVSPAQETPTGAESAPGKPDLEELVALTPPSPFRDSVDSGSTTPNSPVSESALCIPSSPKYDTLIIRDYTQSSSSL
T3 sequence (Q01959 whole entry): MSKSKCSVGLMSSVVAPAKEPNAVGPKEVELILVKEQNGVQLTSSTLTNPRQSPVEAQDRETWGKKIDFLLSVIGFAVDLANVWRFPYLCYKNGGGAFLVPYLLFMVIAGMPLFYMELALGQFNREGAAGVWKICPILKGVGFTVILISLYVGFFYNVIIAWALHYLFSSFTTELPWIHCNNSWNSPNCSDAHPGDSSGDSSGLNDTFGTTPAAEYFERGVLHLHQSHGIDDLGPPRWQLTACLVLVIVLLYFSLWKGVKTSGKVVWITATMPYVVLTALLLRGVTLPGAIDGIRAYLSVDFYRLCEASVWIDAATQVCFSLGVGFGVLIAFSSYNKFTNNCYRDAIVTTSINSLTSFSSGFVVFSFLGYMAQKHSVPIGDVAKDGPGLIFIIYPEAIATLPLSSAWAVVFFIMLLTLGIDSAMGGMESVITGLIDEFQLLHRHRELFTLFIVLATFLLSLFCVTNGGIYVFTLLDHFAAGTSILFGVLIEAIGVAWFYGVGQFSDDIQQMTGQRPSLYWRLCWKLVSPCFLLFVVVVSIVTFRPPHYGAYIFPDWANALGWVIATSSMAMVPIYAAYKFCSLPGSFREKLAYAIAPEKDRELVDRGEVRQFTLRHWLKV
T5 sequence (P23975 whole entry): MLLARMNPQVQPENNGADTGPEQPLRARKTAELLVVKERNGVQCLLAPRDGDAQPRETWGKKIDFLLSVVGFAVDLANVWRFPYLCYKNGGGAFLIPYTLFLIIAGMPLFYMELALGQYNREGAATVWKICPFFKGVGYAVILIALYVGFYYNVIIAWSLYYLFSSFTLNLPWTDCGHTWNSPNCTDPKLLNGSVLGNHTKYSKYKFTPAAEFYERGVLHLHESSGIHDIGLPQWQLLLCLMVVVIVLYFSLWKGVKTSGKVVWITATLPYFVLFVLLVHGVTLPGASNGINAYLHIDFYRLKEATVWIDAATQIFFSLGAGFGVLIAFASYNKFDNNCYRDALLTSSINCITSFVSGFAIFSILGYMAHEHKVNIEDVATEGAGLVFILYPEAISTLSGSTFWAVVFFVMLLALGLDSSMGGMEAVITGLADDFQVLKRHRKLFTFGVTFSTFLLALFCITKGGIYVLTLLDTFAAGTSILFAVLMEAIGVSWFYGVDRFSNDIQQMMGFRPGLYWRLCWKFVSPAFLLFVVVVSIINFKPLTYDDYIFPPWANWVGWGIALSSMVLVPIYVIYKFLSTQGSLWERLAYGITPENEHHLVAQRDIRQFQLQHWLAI
T4 sequence (P31645 whole entry): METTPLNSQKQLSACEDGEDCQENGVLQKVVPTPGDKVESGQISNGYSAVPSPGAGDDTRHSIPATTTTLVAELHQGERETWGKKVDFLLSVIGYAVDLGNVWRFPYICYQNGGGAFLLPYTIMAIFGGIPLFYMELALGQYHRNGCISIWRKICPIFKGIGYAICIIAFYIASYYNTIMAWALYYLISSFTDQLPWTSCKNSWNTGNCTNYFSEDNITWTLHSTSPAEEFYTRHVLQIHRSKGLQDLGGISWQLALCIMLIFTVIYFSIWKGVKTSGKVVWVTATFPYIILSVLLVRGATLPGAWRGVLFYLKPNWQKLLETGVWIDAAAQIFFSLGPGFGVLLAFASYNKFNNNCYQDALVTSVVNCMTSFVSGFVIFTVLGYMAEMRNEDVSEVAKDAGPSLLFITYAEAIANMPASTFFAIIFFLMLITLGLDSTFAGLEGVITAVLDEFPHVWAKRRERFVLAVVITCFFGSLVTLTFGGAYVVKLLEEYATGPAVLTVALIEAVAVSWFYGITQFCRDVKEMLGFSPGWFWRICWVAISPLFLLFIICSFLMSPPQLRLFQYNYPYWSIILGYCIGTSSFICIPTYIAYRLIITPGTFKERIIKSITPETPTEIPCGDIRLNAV

The Ki is the dissociation constant of the complex between target and ligand, obtained from inhibition or displacement. A word on the IC50: it is the concentration at which inhibition is half-maximal. The term inhibition denotes how much of the control response was suppressed. Take `Cc1cccc(NC(=O)c2ccc(-c3ccc(F)cc3)c(C#N)c2)n1`: in assay [1], the Ki was 134 nM. The IC50 in assay [2] came out at 4.57 nM. In addition, the results for the inhibition in assay [3], in [4] and in [5] were above 70%, below 70% and below 70%, respectively.

Take `Cc1cccc(NC(=O)c2ccc(-c3cccc(Cl)c3)cc2)n1`: the Ki in assay [6] is 3330 nM. In addition, the figures for the inhibition in assay [3], in assay [4] and in assay [5] were at most 70%, below 70% and below 70%, respectively.

Consider `Cc1cccc(NC(=O)c2ccc(-c3cccc4ccccc34)c(C#N)c2)n1`, for which the Ki in assay [1] was found to be 72 nM. The IC50 in assay [2] was 640 nM. Also, the inhibition is above 70% in assay [3], below 70% in [4] and below 70% in assay [5].

For `Cc1cccc(NC(=O)c2ccc(-c3ccccc3)nc2)n1`, the Ki in [1] stood at 356 nM. Further, the IC50 in assay [2] was above 3000 nM. In addition, the inhibition in assay [3] is above 70%; in [4], below 70%; in assay [5] it was below 70%.

Turning to `COc1ccccc1-c1cncc(C(=O)Nc2cccc(C)n2)c1`, the Ki in assay [1] was 4920 nM. Further, the inhibition in assay [3] was above 70%; in assay [4], below 70%; in assay [5], below 70%.

As for `Cc1cccc(NC(=O)c2ccc(Br)cc2)n1`, the Ki in [6] is above 10000 nM. Further, the inhibition in assay [3] was above 70%; in assay [4], below 70%; in [5], below 70%.

As for `Cc1cccc(NC(=O)c2ccc(Oc3ccccc3)cc2)n1`, the Ki in assay [6] is 7290 nM. The inhibition was above 70% in [3], below 70% in assay [4] and below 70% in assay [5].

On to `Cc1cccc(NC(=O)c2ccc(-c3cccnc3)nc2)n1`, for which, in assay [1], the Ki is 2480 nM. Also, in assay [2], the 50% inhibitory concentration (IC50) is above 3000 nM. For the same compound, the inhibition in assay [3] is above 70%; in [4] it was below 70%; in assay [5], below 70%.

For the compound `Cc1cccc(NC(=O)c2ccc(-c3cccc(F)c3)c(C#N)c2)n1`, the inhibition in assay [3] is above 70%; in assay [4], below 70%; in assay [5] it was below 70%. Besides, the Ki in assay [7], in assay [8], in assay [9], in [10], in assay [11] and in assay [12] was above 6000 nM each time.

Turning to `Cc1cccc(C#Cc2ccc(-c3ccc(F)cc3)c(C#N)c2)n1`, the Ki in assay [1] stood at 3 nM. Also, the IC50 in assay [2] came out at 7.19 nM. Further, the results for the inhibition in assay [3], in assay [4] and in [5] were above 70%, below 70% and below 70%, respectively.

Regarding `Cc1nc(C#Cc2cc(F)cc(-c3cccnc3)c2)cs1`, the Ki in assay [6] was 2.7 nM; in [7] it was above 6000 nM; in assay [8] it was above 6000 nM; in [9], above 6000 nM; in assay [10] it was above 6000 nM; in assay [11], above 6000 nM. The Ki in assay [12] was above 6000 nM. For the same compound, the IC50 in assay [2] stood at 4.83 nM. For the same compound, the inhibition in assay [3] was above 70%; in assay [4] it was below 70%; in assay [5], below 70%.

As for `Cc1cccc(NC(=O)c2ccc(-c3cccnc3)c(Cl)c2)n1`, the Ki in assay [1] is 2780 nM. In addition, in [2], the IC50 is above 1000 nM. Besides, the inhibition is above 70% in assay [3], below 70% in assay [4] and below 70% in [5].

`Cc1cccc(NC(=O)c2cccc(-c3ccccc3)c2)n1`: the Ki in [1] was 7300 nM. For the same compound, the inhibition is above 70% in assay [3], below 70% in [4] and below 70% in assay [5].

Take `Cc1cccc(NC(=O)c2cc(F)cc(-c3ccccc3C)c2)n1`: in assay [1], the Ki was 610 nM. For the same compound, the inhibition in assay [3] is above 70%; in [4], below 70%; in assay [5], below 70%.

Turning to `Cc1cccc(NC(=O)c2cccc(Cl)c2)n1`, the Ki in assay [1] amounted to 1730 nM. In addition, the IC50 in assay [2] is 1870 nM. Also, the inhibition was above 70% in assay [3], below 70% in [4] and below 70% in assay [5].

On to `Cc1nc(C#Cc2cc(F)cc(C#N)c2)cs1`, for which, in [6], affinity was put at a Ki of 0.9 nM. The IC50 in assay [2] turned out to be 0.813 nM. The figures for the inhibition in assay [3], in [4] and in [5] were above 70%, below 70% and below 70%, respectively.

With `Cc1cccc(NC(=O)c2ccc(F)c(F)c2)n1`, the Ki in assay [6] is above 10000 nM. Besides, the inhibition was above 70% in [3], below 70% in assay [4] and below 70% in assay [5].

For the compound `Cc1cccc(NC(=O)c2cc(F)cc(C#N)c2)n1`, the Ki in assay [1] worked out at 65.5 nM. Moreover, the IC50 in assay [2] worked out at 21.7 nM. For the same compound, the inhibition was above 70% in [3], below 70% in assay [4] and below 70% in assay [5].

`Cc1cccc(NC(=O)c2cc(F)cc(F)c2)n1`: the affinity in [6], expressed as Ki, was 7580 nM. For the same compound, the results for the inhibition in assay [3], in assay [4] and in assay [5] were at most 70%, below 70% and below 70%, respectively.

As for `Cc1nc(C#Cc2ccc(-c3cccnc3)c(F)c2)cs1`, the inhibition in [3] is above 70%; in assay [4], below 70%; in [5], below 70%. Also, the Ki in assay [7], in assay [8], in [9], in [10], in assay [11] and in assay [12] was above 6000 nM each time.

Turning to `Cc1nc(C#Cc2ccc(-c3cccnc3)nc2)cs1`, the inhibition in [3] is above 70%; in [4], below 70%; in assay [5], below 70%.

Regarding `Cc1cccc(NC(=O)c2ccc(-c3ccccc3)c(C#N)c2)n1`, the Ki in [6] is 9.8 nM; in assay [7] it was above 6000 nM; in assay [8] it was above 6000 nM; in assay [9], above 6000 nM; in assay [10], above 6000 nM; in assay [11], above 6000 nM. The Ki in assay [12] was above 6000 nM. In addition, the IC50 in assay [2] came to 13.7 nM.

With `Cc1cccc(C#Cc2ccccc2)n1`, the inhibition in [3] was above 70%; in assay [4] it was below 70%; in assay [5] it was below 70%.

Regarding `Cc1cccc(NC(=O)c2cccc(C#N)c2)n1`, the Ki in assay [1] was found to be 330 nM. The IC50 in assay [2] amounted to 490 nM. The values for the inhibition in assay [3], in assay [4] and in [5] were above 70%, below 70% and below 70%, respectively.

`Cc1cccc(NC(=O)c2ccc(-c3ccccc3)cc2)n1`: in assay [6], the Ki stood at 7000 nM. Also, the inhibition in assay [3] is at most 70%; in assay [4] it was below 70%; in assay [5] it was below 70%.

Regarding `Cc1nc(C#Cc2ccc(-c3ccccc3)nc2)cs1`, the inhibition in assay [3] is above 70%; in assay [4], below 70%; in assay [5] it was below 70%.

In the case of `Cc1cccc(NC(=O)c2ccc(-c3cccnc3)c(C#N)c2)n1`, the Ki in assay [1] worked out at 2040 nM. In [2], the IC50 was above 1000 nM. In addition, the inhibition in assay [3] is above 70%; in assay [4], below 70%; in assay [5], below 70%.

`Cc1cccc(C#Cc2cccc(C#N)c2)n1`: the Ki in [1] turned out to be 1.3 nM. In [2], the IC50 worked out at 0.415 nM. Further, the values for the inhibition in assay [3], in [4] and in assay [5] were above 70%, below 70% and below 70%, respectively.

For the compound `Cc1cccc(NC(=O)c2ccc(C#N)cc2)n1`, the Ki in assay [6] was above 10000 nM. Moreover, the inhibition in assay [3] is above 70%; in assay [4], below 70%; in assay [5] it was below 70%.

Take `Cc1cccc(NC(=O)c2cc(F)cc(-c3cccnc3)c2)n1`: in [1], the Ki turned out to be 702 nM. The inhibition in [3] is above 70%; in assay [4], below 70%; in [5] it was below 70%.

Consider `Cc1nc(C#Cc2cccc(-c3ccccc3)c2)cs1`, for which the inhibition is above 70% in [3], below 70% in assay [4] and below 70% in assay [5].

Take `COc1ccccc1-c1cc(F)cc(C(=O)Nc2cccc(C)n2)c1`: the Ki in assay [1] was above 10000 nM. Besides, the results for the inhibition in assay [3], in assay [4] and in assay [5] were above 70%, below 70% and below 70%, respectively.

In the case of `Cc1cccc(NC(=O)c2cncc(-c3cccnc3)c2)n1`, the Ki in [1] is above 10000 nM. The figures for the inhibition in [3], in assay [4] and in [5] were above 70%, below 70% and below 70%, respectively.

On to `Cc1cccc(NC(=O)c2cc(-c3cc(F)cc(F)c3)ccn2)n1`, for which the IC50 in assay [2] was determined as 98.1 nM. For the same compound, the results for the inhibition in [3], in [4] and in [5] were above 70%, below 70% and below 70%, respectively.

For `Cc1cccc(NC(=O)c2ccc(-c3cccc(C#N)c3)cc2)n1`, the Ki in [6] is above 10000 nM. Further, the inhibition in assay [3] is at most 70%; in [4], below 70%; in assay [5] it was below 70%.

For the compound `Cc1cccc(NC(=O)c2ccc(-c3cccnc3)c(F)c2)n1`, in [1], the Ki stood at 7720 nM. The IC50 in assay [2] is above 3000 nM. The inhibition is above 70% in assay [3], below 70% in assay [4] and below 70% in assay [5].

As to `Cc1nc(C#Cc2cccnc2)cs1`, the inhibition in assay [3], in assay [4] and in assay [5] was below 70% in each case.
